Data as given in the supplement of paper PMC10331698.
± gives the standard deviation of the averaged measurements.

Tests used:
Assay in all cases: level (log10 ratio to DMSO vehicle control); higher = higher biomarker level / cell amount than vehicle control
[1] = compound: C=C(C)C(=O)OCCC(F)(F)C(F)(F)C(F)(F)C(F)(F)C(F)(F)C(F)(F)F [6:2 Fluorotelomer methacrylate]; conditions: in DMSO
Description: (§1)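 BioMAP Diversity Plus panel of 12 human primary cell co-culture systems (3C, 4H, LPS, SAg, BT, BF4T, BE3C, CASM3C, HDF3CGF, KF3CT, MyoF, Mphg). Compounds were added 1 h before stimulation and left for 24 h (MyoF 48 h; BT 72 h for soluble read-outs or 6 d for IgG). Biomarkers were read by ELISA, cytotoxicity by SRB, PBMC viability and proliferation by Alamar Blue. Each well value was divided by the mean of 8 DMSO control wells on the same plate and log10 transformed; duplicate blinded samples were tested at 4 concentrations.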

[2] = compound: FC(F)(F)C(F)(F)C(F)(F)C(F)(F)C(F)(F)C(F)(F)CC1CO1 [3-(Perfluorohexyl)-1,2-epoxypropane]; conditions: in DMSO
Description: as §1

[3] = compound: C=CC(=O)OCC(F)(F)C(F)(F)C(F)(F)COC(=O)C=C [1H,1H,5H,5H-Perfluoro-1,5-pentanediol diacrylate]; conditions: 6700 nM; in DMSO
Description: as §1

[4] = compound: O=S(=O)(Cl)C(F)(F)C(F)(F)C(F)(F)C(F)(F)C(F)(F)C(F)(F)C(F)(F)C(F)(F)F [Perfluoro-1-octanesulfonyl chloride]; conditions: in DMSO
Description: as §1

Nonafluoropentanamide = compound: NC(=O)C(F)(F)C(F)(F)C(F)(F)C(F)(F)F [Nonafluoropentanamide]; conditions: in DMSO
Description: as §1

Heptafluorobutyl iodide = compound: FC(F)(F)C(F)(F)C(F)(F)CI [Heptafluorobutyl iodide]; conditions: in DMSO
Description: as §1

[5] = compound: FC(F)(F)C(F)(F)C(F)(F)CC1CO1 [1H,1H-Heptafluorobutyl epoxide]; conditions: in DMSO
Description: as §1

Row | Test System | level (log10) ([1]; 6700 nM) | level (log10) ([1]; 20000 nM) | level (log10) ([1]; 60000 nM) | level (log10) ([2]; 6700 nM) | level (log10) ([2]; 20000 nM) | level (log10) ([2]; 60000 nM) | level (log10) [3] | level (log10) ([4]; 6700 nM) | level (log10) ([4]; 20000 nM) | level (log10) ([4]; 60000 nM) | level (log10) (Nonafluoropentanamide; 6700 nM) | level (log10) (Nonafluoropentanamide; 20000 nM) | level (log10) (Nonafluoropentanamide; 60000 nM) | level (log10) (Heptafluorobutyl iodide; 6700 nM) | level (log10) (Heptafluorobutyl iodide; 20000 nM) | level (log10) (Heptafluorobutyl iodide; 60000 nM) | level (log10) ([5]; 6700 nM) | level (log10) ([5]; 20000 nM) | level (log10) ([5]; 60000 nM)
1 | BT:Secreted IgG | 0.0165 ± 0.00071 | -0.0065 ± 0.005 | -0.0095 ± 0.023 | -0.0085 ± 0.032 | -0.0035 ± 0.018 | -0.0005 ± 0.018 | -0.565 ± 0.17 | -0.033 ± 0.0042 | -0.0265 ± 0.039 | -0.042 ± 0.034 | -0.001 ± 0.0014 | -0.006 ± 0.0099 | -0.005 ± 0.014 | 0.038 ± 0.02 | 0.0585 ± 0.018 | 0.0375 ± 0.028 | 0.017 ± 0.038 | -0.0175 ± 0.043 | 0.008 ± 0.033
2 | BF4T:tPA | -0.0185 ± 0.016 | -0.036 ± 0.038 | -0.014 ± 0.047 | 0.0155 ± 0.039 | -0.011 ± 0.0085 | 0.031 ± 0.034 | -0.071 ± 0.014 | -0.0495 ± 0.029 | -0.047 ± 0.057 | -0.181 ± 0.085 | -0.021 ± 0.018 | -0.043 ± 0.023 | -0.0405 ± 0.0078 | -0.016 ± 0.0042 | -0.0235 ± 0.0078 | -0.009 ± 0.05 | -0.012 ± 0.014 | -0.0235 ± 0.018 | -0.0065 ± 0.011
3 | SAg:CD62E/E-Selectin | -0.011 ± 0.038 | 0.0105 ± 0.015 | 0.0105 ± 0.0064 | -0.008 ± 0.018 | 0.0005 ± 0.0035 | -0.012 ± 0.027 | -0.469 ± 0.1 | -0.0055 ± 0.013 | 0.0155 ± 0.019 | 0.127 ± 0.016 | -0.006 ± 0.018 | -0.0075 ± 0.00071 | 0.009 ± 0.0042 | -0.0225 ± 0.026 | 0.0065 ± 0.00071 | -0.025 ± 0.014 | -0.0065 ± 0.043 | -0.013 ± 0.0057 | -0.015 ± 0.016
4 | BT:sIL-17A | -0.058 ± 0.16 | 0.028 ± 0.099 | -0.078 ± 0.04 | -0.0215 ± 0.057 | -0.0315 ± 0.12 | -0.041 ± 0.11 | -1.14 ± 0.22 | -0.0095 ± 0.08 | 0.0335 ± 0.071 | -0.084 ± 0.15 | -0.145 ± 0.18 | 0.05 ± 0.064 | -0.213 ± 0.17 | 0.009 ± 0.02 | 0.009 ± 0.045 | -0.176 ± 0.11 | -0.0185 ± 0.022 | 0.0025 ± 0.033 | -0.033 ± 0.067
5 | SAg:PBMC Cytotoxicity | -0.0305 ± 0.057 | 0.0085 ± 0.0021 | 0.015 ± 0.0099 | 0.01 ± 0.037 | -0.0055 ± 0.011 | 0.025 ± 0.0071 | -0.111 ± 0.0035 | 0.01 ± 0.025 | 0.0045 ± 0.016 | 0.067 ± 0.0085 | 0.009 ± 0.02 | -0.0005 ± 0.013 | 0.0295 ± 0.018 | -0.015 ± 0.025 | 0.0035 ± 0.005 | 0.003 ± 0.0099 | -0.0095 ± 0.0092 | -0.005 ± 0.013 | 0.0345 ± 0.011
6 | BF4T:MMP-1 | -0.0015 ± 0.005 | 0.015 ± 0.011 | 0.015 ± 0.013 | -0.003 ± 0.0057 | 0.0045 ± 0.0021 | 0.023 ± 0.027 | 0.031 ± 0.016 | 0.008 ± 0.016 | 0.025 ± 0.014 | -0.042 ± 0.0071 | -0.009 ± 0.0042 | -0.0005 ± 0.013 | -0.01 ± 0.0099 | -0.005 ± 0.013 | -0.0055 ± 0.0035 | 0.0055 ± 0.012 | 0.014 ± 0.02 | 0.009 ± 0.024 | 0.019 ± 0.048
7 | BF4T:CCL26/Eotaxin-3 | 0.0285 ± 0.025 | -0.001 ± 0.11 | 0.041 ± 0.055 | -0.0225 ± 0.076 | -0.016 ± 0.065 | 0.001 ± 0.0042 | -0.04 ± 0.0028 | -0.0515 ± 0.0064 | -0.142 ± 0.011 | -0.326 ± 0.051 | -0.006 ± 0.0071 | -0.055 ± 0.0042 | -0.0525 ± 0.0092 | -0.0245 ± 0.005 | 0.002 ± 0.023 | 0.048 ± 0.023 | -0.001 ± 0.013 | 0.0095 ± 0.0035 | 0.01 ± 0.011
8 | BE3C:CXCL8/IL-8 | 0.05 ± 0.086 | 0.0325 ± 0.046 | 0.043 ± 0.072 | 0.0215 ± 0.04 | 0.01 ± 0.031 | 0.0605 ± 0.015 | -0.0515 ± 0.04 | 0.0065 ± 0.005 | -0.0605 ± 0.0021 | -0.311 ± 0.17 | 0.0235 ± 0.019 | 0.004 ± 0.05 | 0.0245 ± 0.066 | 0.029 ± 0.04 | 0.008 ± 0.037 | 0.021 ± 0.021 | 0.01 ± 0.062 | 0.0235 ± 0.029 | 0.0505 ± 0.081
9 | BE3C:CD54/ICAM-1 | -0.0055 ± 0.0064 | -0.0085 ± 0.011 | 0.015 ± 0.0099 | 0.0035 ± 0.00071 | 0 ± 0.0071 | -0.0005 ± 0.005 | -0.018 ± 0.014 | -0.0045 ± 0.0021 | 0.036 ± 0.0071 | -0.69 ± 0.11 | 0.0025 ± 0.012 | -0.009 ± 0.028 | 0.0025 ± 0.03 | 0.013 ± 0.021 | 0.005 ± 0.0071 | 0.0085 ± 0.0078 | 0.001 ± 0.0028 | -0.013 ± 0.034 | 0.0055 ± 0.015
10 | LPS:CCL2/MCP-1 | -0.007 ± 0.05 | -0.014 ± 0.034 | -0.043 | -0.012 ± 0.011 | -0.0055 ± 0.019 | 0.0025 ± 0.0078 | -0.042 ± 0.014 | -0.0075 ± 0.0078 | 0.025 ± 0.021 | 0.0205 ± 0.029 | 0.005 ± 0.011 | 0.022 ± 0.035 | 0.0325 ± 0.039 | 0.008 ± 0.041 | 0.0035 ± 0.013 | 0.027 ± 0.024 | -0.0025 ± 0.005 | -0.017 ± 0.023 | -0.0095 ± 0.0021
11 | BE3C:HLA-DR | 0.0015 ± 0.016 | -0.0065 ± 0.0064 | 0.0125 ± 0.005 | 0 ± 0.0099 | -0.0025 ± 0.011 | 0.006 ± 0.017 | -0.0175 ± 0.028 | -0.006 ± 0.025 | -0.041 ± 0.014 | -0.642 ± 0.14 | -0.005 ± 0.0042 | -0.016 ± 0.0071 | -0.016 ± 0.0057 | -0.0055 ± 0.0064 | -0.022 ± 0.024 | -0.0035 ± 0.018 | 0.002 ± 0.013 | -0.0075 ± 0.012 | -0.01 ± 0.025
12 | LPS:sTNF-alpha | 0.031 ± 0.028 | 0.0415 ± 0.021 | 0.0405 ± 0.022 | 0.063 ± 0.034 | 0.09 ± 0.0028 | 0.103 ± 0.011 | -0.008 ± 0.0057 | -0.0175 ± 0.044 | -0.002 ± 0.045 | -0.026 ± 0.052 | 0.018 ± 0.037 | 0.0125 ± 0.0092 | -0.043 ± 0.013 | -0.009 ± 0.017 | -0.0095 ± 0.016 | -0.009 ± 0.023 | -0.003 ± 0.014 | -0.0055 ± 0.012 | -0.014 ± 0.0085
13 | BT:sTNF-alpha | -0.0045 ± 0.0035 | 0.0045 ± 0.012 | -0.068 ± 0.058 | 0.013 ± 0.11 | 0.128 ± 0.0064 | 0.0765 ± 0.14 | -0.94 ± 0.21 | 0.067 ± 0.042 | 0.126 ± 0.016 | 0.102 ± 0.16 | 0.089 ± 0.086 | 0.031 ± 0.069 | 0.0565 ± 0.04 | -0.035 ± 0.22 | 0.149 ± 0.096 | 0.0905 ± 0.069 | -0.042 ± 0.12 | -0.038 ± 0.02 | -0.123 ± 0.19
